Consider three compounds from patent US12290513B2, “Therapeutic methods and compositions for treating movement disorders” (Vima Therapeutics, Inc., priority 2023, dated 2025).

Structures are written as SMILES.

Usually CLint scaled stands for the capacity of the preparation to metabolise the compound, expressed as a volume cleared per time. The low end stands for greater metabolic stability, the high end for faster metabolism. The half-life is the time in which the quantity being followed falls by half. Read a low half-life as rapid decline. In general, microsomal CLint refers to a measure of how fast metabolising enzymes remove a compound, apart from limits set by blood flow. High values mean rapid turnover, low ones slow turnover. In general, hepatocyte CLint refers to a measure of how fast metabolising enzymes remove a compound, apart from limits set by blood flow. Low readings indicate slow turnover, high ones rapid turnover.

The target in one series is T1, CYP2B6 (Homo sapiens, UniProt P20813).
T1 sequence (P20813 1-491): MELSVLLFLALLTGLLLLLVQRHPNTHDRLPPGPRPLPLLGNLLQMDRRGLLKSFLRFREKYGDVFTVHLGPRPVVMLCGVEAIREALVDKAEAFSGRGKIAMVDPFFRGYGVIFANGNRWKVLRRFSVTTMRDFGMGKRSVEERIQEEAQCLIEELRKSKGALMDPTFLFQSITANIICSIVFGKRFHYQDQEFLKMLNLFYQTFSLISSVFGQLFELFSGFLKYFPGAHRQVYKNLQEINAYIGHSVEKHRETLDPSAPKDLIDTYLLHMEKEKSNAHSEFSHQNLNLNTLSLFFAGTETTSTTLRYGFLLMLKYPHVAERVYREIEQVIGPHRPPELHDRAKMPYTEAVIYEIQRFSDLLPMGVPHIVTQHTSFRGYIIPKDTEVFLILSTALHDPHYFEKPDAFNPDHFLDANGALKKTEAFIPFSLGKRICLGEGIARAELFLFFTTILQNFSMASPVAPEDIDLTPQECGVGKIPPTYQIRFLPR
Put plainly: Incubation with recombinant CYP2B6. To be noted: for t1/2: unit not given.

The next series is described as follows: in vitro. Particulars: mouse, liver microsomes.
Series [1] in a line: Hepatocyte stability, rat. As for the experimental part: (§1) • 1. 10 mM stock solutions of test compounds and positive control compound were prepared in appropriate solvent (DMSO). • 2. In separate conical tubes, 10 mM test compound and positive controls were diluted to 100 μM by combining 198 μL of 50% acetonitrile/50% water and 2 μL of 10 mM stock. Preparation of Hepatocytes • 1. Incubation medium (William's E Medium supplemented with GlutaMAX) and hepatocyte thawing medium were placed in a 37C water bath and warmed for at least 15 minutes prior to use. • 2. A vial of cryopreserved hepatocytes was thawed by placing the vial in a 37C water bath and gently shaken for 2 minutes. After thawing was completed, the vial was cleaned with 70% ethanol and transferred to a biosafety cabinet. • 3. Using wide-bore pipette tips, hepatocytes were transferred into a 50 mL conical tube containing thawing medium. The 50 mL conical tube was placed into a centrifuge and spun at 100 g for 10 minutes. […] Using AO/PI Staining, cells were counted to determine the viable cell density. Cells were diluted with incubation medium to a working cell density of 0.5×10^6 viable cells/mL. Procedure for Stability Determination • 1. 198 μL of hepatocytes were pipetted into each well of a 96-well non-coated plate. The plate was placed in the incubator to allow the hepatocytes to warm for 10 minutes. • 2. 2 μL of the 100 μM test compound or positive control was pipetted into respective wells of the 96-well non-coated plate to start the reaction. The plate was returned to the incubator for the designed time points. • 3. The contents of the wells were removed in 25 μL aliquots at time points of 0.5, 15, 30, 60, 90 and 120 minutes. The aliquots were then mixed with 6 volumes (150 μL) of acetonitrile containing an internal standard, IS (100 nM alprazolam, 200 nM caffeine and 100 nM tolbutamide), to terminate the reaction. Samples were vortexed for 5 minutes and centrifuged for 45 minutes at 3,220 g. Aliquots of 100 μL of supernatant were diluted with 100 μL ultra-pure water, and the mixture was used for LC/MS/MS analysis. All incubations were performed in duplicate. Data Analysis
(§2) All calculations were carried out using Microsoft Excel and according to standard analysis methods that are known in the art.

Series [2] is described as follows: Whole blood stability, rat. Particulars: rat, blood; for Remaining Percentages (%) 0 min: 0 h, 1 μM. The protocol:
Procedures for blood Stability. • A. 398 μL of blood from each species was added to an incubation plate, which was pre-warmed at 37C for 15 minutes. • B. After the pre-incubation, 2 μL of working solution (test compounds or control compounds) was spiked to 398 μL of blood to reach a final concentration of 1 μM for test compounds and 5 μM for control compounds. The final concentration of organic solvents is 0.5%. The assays were performed in duplicate. • C. The reaction samples were incubated at 37C. • D. Aliquots of 50 μL were taken from the reaction samples at 0, 15, 30, 60 and 120 minutes. The reaction was stopped by the addition of 50 μL ultrapure water and 400 μL cold acetonitrile. • E. All samples were vortexed for 10 minutes, followed by centrifugation at 3,220 g for 40 minutes to precipitate proteins. 100 μL of the supernatant was then transferred to a new plate. The supernatant was diluted with ultrapure water as needed for detection by LC-MS/MS. Sample Analysis
Samples were analyzed by LC-MS/MS to measure the concentration of the test compounds.
as §2

The target in another series is T2, CYP2A6 (Homo sapiens, UniProt P11509).
T2 sequence (P11509 1-494): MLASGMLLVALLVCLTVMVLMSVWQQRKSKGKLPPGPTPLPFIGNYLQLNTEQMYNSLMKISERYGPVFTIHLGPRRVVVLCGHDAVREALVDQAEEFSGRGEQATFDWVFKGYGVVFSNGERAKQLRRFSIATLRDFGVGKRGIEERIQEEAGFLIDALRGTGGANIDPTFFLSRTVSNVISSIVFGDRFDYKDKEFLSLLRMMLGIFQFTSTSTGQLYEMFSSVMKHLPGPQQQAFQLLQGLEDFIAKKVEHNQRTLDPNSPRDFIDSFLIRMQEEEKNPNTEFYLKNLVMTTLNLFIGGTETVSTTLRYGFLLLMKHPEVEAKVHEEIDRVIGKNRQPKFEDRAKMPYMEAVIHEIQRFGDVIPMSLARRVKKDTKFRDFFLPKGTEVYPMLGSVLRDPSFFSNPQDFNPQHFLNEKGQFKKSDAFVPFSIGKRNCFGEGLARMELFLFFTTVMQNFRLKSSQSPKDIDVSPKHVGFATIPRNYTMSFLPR
Put plainly: Incubation with recombinant CYP2A6. Particulars: for t1/2: unit not given.

The target of a further series is CYP2D6 (Homo sapiens, UniProt P10635). Put plainly: Incubation with recombinant CYP2D6.
For a further series, the target named is CYP2E1 (Homo sapiens, UniProt P05181). Nature of the series: Incubation with recombinant CYP2E1. Particulars: for t1/2: unit not given.
Series [3] in a line: Hepatocyte stability, dog. As for the experimental part:
as §1, §2

Series [4] in a line: Hepatocyte stability, human. As for the experimental part: as §1, §2
The target in a further series is CYP2C9 (Homo sapiens, UniProt P11712). Put plainly: Incubation with recombinant CYP2C9. Particulars: for t1/2: unit not given.
Chain of CYP2C9 (P11712 whole entry): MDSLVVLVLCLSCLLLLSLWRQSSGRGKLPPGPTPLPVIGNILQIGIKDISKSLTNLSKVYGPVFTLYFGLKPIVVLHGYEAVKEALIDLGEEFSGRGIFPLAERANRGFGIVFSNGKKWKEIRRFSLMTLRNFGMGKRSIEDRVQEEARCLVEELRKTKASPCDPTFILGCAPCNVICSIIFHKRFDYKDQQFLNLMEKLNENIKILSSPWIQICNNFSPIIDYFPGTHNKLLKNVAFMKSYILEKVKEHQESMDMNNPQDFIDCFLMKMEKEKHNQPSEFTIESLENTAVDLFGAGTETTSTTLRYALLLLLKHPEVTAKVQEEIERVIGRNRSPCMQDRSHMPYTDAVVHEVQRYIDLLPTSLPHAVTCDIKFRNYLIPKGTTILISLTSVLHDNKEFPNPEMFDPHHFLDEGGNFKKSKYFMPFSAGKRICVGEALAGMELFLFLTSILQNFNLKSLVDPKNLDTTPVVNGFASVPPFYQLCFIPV

Chain of CYP2E1 (P05181 whole entry): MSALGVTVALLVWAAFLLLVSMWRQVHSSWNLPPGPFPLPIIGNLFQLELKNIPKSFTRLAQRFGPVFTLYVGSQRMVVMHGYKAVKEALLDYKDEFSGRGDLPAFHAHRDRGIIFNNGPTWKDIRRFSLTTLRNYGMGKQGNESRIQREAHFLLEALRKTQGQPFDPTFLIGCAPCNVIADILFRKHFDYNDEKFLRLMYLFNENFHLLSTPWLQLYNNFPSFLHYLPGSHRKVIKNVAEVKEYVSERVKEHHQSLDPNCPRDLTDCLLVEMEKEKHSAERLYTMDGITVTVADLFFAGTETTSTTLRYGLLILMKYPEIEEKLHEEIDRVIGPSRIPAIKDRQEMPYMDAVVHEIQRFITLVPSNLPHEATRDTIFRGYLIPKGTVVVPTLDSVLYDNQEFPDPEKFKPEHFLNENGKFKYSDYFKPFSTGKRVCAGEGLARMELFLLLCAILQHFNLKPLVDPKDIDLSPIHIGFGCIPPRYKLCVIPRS
Chain of CYP2D6 (P10635 whole entry): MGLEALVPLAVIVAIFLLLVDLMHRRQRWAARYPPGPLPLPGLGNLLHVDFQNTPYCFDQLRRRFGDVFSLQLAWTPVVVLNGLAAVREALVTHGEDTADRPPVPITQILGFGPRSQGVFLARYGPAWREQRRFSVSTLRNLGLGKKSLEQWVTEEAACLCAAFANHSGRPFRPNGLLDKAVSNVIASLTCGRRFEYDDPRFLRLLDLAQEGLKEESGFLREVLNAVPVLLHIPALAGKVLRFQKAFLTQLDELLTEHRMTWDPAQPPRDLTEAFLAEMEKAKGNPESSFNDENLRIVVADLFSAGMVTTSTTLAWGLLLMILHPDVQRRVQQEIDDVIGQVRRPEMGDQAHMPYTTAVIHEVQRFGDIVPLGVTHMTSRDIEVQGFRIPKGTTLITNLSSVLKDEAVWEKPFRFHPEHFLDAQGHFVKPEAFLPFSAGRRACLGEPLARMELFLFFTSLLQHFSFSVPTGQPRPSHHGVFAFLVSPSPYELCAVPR

In the case of `O[C@@](CCN1CCCCC1)(c1ccccc1)C1CCCCC1` [(R)-THP, (R)-trihexyphenidyl], the CLint on CYP2B6, at CYP2A6, at CYP2E1 and at CYP2C9 was 0.00 µL/min/pmol each time. The t1/2 result (at CYP2B6; in series [2]; on CYP2A6; on CYP2E1; on CYP2C9) was “∞” each time. For the same compound, the CLint scaled in “in vitro” was 2030 mL/min/kg. The half-life at 1 μM is 2.82 min in the series “in vitro”, 1.47 min in series [1] (cryopreserved hepatocytes), 40.2 min in [3] (cryopreserved hepatocytes) and 63.3 min in [4] (cryopreserved hepatocytes). The same compound showed a microsomal CLint at 1 μM in “in vitro” of 492 µL/min/mg. Further, the intrinsic clearance (CLint scaled) at 1 μM in series [1] (cryopreserved hepatocytes) amounted to 4420 mL/min/kg; in series [3] (cryopreserved hepatocytes), 187 mL/min/kg; in [4] (cryopreserved hepatocytes) it was 55.7 mL/min/kg. The intrinsic metabolic clearance (hepatocyte CLint) at 1 μM in series [1] (cryopreserved hepatocytes) was 945 µL/min/1e6 cells; in [3] (cryopreserved hepatocytes) it was 34.5 µL/min/1e6 cells; in [4] (cryopreserved hepatocytes) it was 21.9 µL/min/1e6 cells. Moreover, in series [2], the “Remaining Percentages (%) 0 min” value was 100.00%. In addition, the “Substrates of CYP2D6” value on CYP2D6 is “Rac, R and S”.

For `C[C@@H](C[N+](C)(C)C)OC(N)=O.[Cl-]` [(S)-BTC, (S)-bethanechol], the “Predicted Hepatic CLH” value in series [1] (hepatocytes), in series [3] (hepatocytes) and in series [4] (hepatocytes) was 0 mL/min/kg in each case. Moreover, the “in vitro t1/2” value in series [1] (hepatocytes), in series [3] (hepatocytes) and in series [4] (hepatocytes) was “∞” in each case. In series [2], the t1/2 entry is reported as “∞”. The “Remaining Percentages (%) 0 min” value in series [2] is recorded as 100.00%.

With `O[C@](CCN1CCCCC1)(c1ccccc1)C1CCCCC1` [(S)-THP, (S)-trihexyphenidyl], on CYP2B6, the CLint came out at 0.00 µL/min/pmol and the t1/2 entry is reported as “∞”. In “in vitro”, this compound showed a CLint scaled of 1030 mL/min/kg, a half-life at 1 μM of 5.56 min and a microsomal CLint at 1 μM of 249 µL/min/mg. On CYP2A6, the CLint came out at 0.00 µL/min/pmol and the t1/2 entry is recorded as “∞”. The “Substrates of CYP2D6” value at CYP2D6 was “Rac, R and S”. Further, at CYP2E1, the CLint came to 0.00 µL/min/pmol and the t1/2 entry is on record as “∞”. Moreover, at CYP2C9, the CLint is 0.00 µL/min/pmol and the t1/2 result is “∞”.
